{"source": "paper PMC6934184", "about": "“Selective DNA-PKcs inhibition extends the therapeutic index of localized radiotherapy and chemotherapy” (The Journal of Clinical Investigation, 2019)", "target": "T1, CDK16 (PCTK1)/cyclin Y (Homo sapiens, UniProt Q00536)", "T1 construct": "purchased Thermo Fisher Scientific (Life Technologies) SelectScreen", "T1 sequence (Q00536 whole entry)": "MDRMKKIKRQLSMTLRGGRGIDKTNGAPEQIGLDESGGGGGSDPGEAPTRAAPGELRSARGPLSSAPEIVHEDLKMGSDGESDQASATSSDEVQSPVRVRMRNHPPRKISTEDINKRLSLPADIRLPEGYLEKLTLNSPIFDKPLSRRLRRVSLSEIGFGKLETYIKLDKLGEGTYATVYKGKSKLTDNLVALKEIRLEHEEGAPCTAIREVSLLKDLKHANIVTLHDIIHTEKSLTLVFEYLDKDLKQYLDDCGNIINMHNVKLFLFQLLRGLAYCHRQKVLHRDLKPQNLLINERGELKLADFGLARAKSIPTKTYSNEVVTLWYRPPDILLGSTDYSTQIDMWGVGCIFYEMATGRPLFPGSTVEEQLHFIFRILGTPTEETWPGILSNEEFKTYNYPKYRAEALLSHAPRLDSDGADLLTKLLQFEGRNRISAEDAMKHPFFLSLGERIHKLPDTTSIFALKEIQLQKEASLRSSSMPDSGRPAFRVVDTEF", "T1 sequence (Q8ND76 whole entry partner)": "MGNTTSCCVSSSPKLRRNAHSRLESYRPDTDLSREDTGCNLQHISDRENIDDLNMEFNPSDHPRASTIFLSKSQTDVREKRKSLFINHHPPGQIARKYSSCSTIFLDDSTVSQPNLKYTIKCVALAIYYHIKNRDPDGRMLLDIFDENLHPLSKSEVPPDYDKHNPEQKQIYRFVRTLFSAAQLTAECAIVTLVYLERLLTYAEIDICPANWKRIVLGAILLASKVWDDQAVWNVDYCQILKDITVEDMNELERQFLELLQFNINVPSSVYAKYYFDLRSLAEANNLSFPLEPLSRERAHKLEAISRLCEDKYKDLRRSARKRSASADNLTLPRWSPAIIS", "test": "SelectScreen LanthaScreen", "type": "binding", "settings": "read-out: % displacement", "outline": "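SelectScreen broad panel; activity (Z'LYTE, Adapta) plus binding formats. ATP: Km app for CSF1R Z'LYTE; 10 for CAMK1 Adapta. Readout = % per kinase.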"}
{"smiles": "CN(C(=O)CN1CCOCC1)c1ccc2sc3c(-c4cccc5c(=O)cc(N6CC7CCC(C6)O7)oc45)cccc3c2c1", "note": "[NU5455]", "values": [{"measurement": "inhibition at 1 µM", "value": 7, "unit": "%"}]}
